Reference: US4578398A, “Substituted 2,3,4,9-tetrahydro-1H-carbazole-1-acetic acid, compositions and use” (American Home Products Corporation, priority 1985, dated 1986)

Key:
Phenylquinone Writhing = assay: Drug effects in phenylquinone-induced writhing in mice; type: in vivo, Male Swiss albino mice; conditions: p.o., mouse, 60 min before phenylquinone i.p., writhes counted 15 min
Procedure: A further test used to determine the utility of the compounds of the present invention is designated: DRUG EFFECTS IN PHENYLQUINONE-INDUCED WRITHING IN MICE.
The objective of this test is to determine the ability of test drugs to inhibit the nociceptive (pain) response of mice injected with a chemical irritant. This test is a primary screen for both peripheral and centrally acting analgesic drugs.
Male Swiss albino mice (15-25 g). The animals are fasted for 18 hours prior to use but have free access to water.
Drug Preparation and Administration:
Drugs are dissolved or suspended according to their solubility in 0.5% methyl cellulose or 0.5% Tween 80. They are administered by gastric lavage in a volume of 5 ml/kg. For primary screening all drugs are administered at the arbitrary dosage of 200 mg/kg, p.o. to a group of 10 mice.
A modification of the method of Siegmund et al., Proc. Soc. Exp. Biol. Med., 95, 729-731 (1957) is used. Groups of 5 mice are dosed with the test compound or vehicle control. Sixty minutes later the animals are injected i.p. with 0.3 ml/20 g body weight of a 0.02% solution of phenylquinone (PBQ; 2-phenyl-1,4-benzoquinone) and placed in individual observation boxes. The number of writhing or abdominal squirming movements made by each mouse during the following 15 min. period is counted. The experiment is repeated with another group of 5 mice and the mean number of writhes per mouse for a group of 10 mice is calculated.
Drug treated and vehicle-treated control groups are compared and the percentage protection conferred by the drug is calculated: [formula] where c=mean number of writhes in the control group where t=mean number of writhes in the test drug group

Adjuvant Edema = assay: Preventative Adjuvant Edema (Freund's complete adjuvant, hind paw edema volume in rats); type: in vivo, Male Sprague Dawley rats; conditions: p.o., rat, dosed day 0, 1 and 2, edema volume day 3
Procedure: This test is a primary screen for anti-inflammatory drugs.
Male Sprague Dawley rats (180-200 g) are used. The animals have free access water but food is withdrawn 18 hours before testing.
Drug Preparations and Administration:
Freund's complete adjuvant is prepared by suspending 5 mg killed and dried Mycobacterium butyricum (Difco) in 1 ml liquid paraffin. The test compounds are dissolved in distilled water or suspended in distilled water with a few drops of Tween 80 according to their solubility. […]
The method is essentially that described by Wax et al., J. Pharmacol. Exp. Ther., 192, 166-171 (1975). Groups of rats are injected intradermally in the left hind paw with 0.1 ml of Freund's complete adjuvant. The test compound or vehicle is administered immediately before the adjuvant, 24 hours and 48 hours after the adjuvant (day 0, 1 and 2). The injected hind paw volume is measured before the injection of adjuvant and 24 hrs. after the last drug administration (day 3) by means of a plethysmometer (Buxco Electronics Inc.). The difference between the hind paw volume on day 0 and day 3 represents the edema volume. Phenylbutazone (50 mg./kg, p.o.) is included as a positive control.
The mean edema volume (expressed as ml±SEM) is calculated for each group and the percentage protection conferred by the drug is calculated: [formula] where c is the mean edema volume for the untreated controls and t is the mean edema volume for the drug treated group.

| Structure (SMILES) | % Inhibition (Phenylquinone Writhing in Mice) (Phenylquinone Writhing; 25 mg/kg) | % Inhibition (Preventative Adjuvant Edema) (Adjuvant Edema; 25 mg/kg) | % Inhibition (Phenylquinone Writhing in Mice) (Phenylquinone Writhing; 200 mg/kg) | % Inhibition (Preventative Adjuvant Edema) (Adjuvant Edema; 50 mg/kg) |
| --- | --- | --- | --- | --- |
| C=CC1CCC(CC)(CC(=O)O)c2[nH]c3c(CC)cccc3c21 (single isomer, unassigned) [Example 1 g, 4-Ethenyl-1,8-diethyl-2,3,4,9-tetrahydro-1H-carbazole-1-acetic Acid] | 21% | 30% | – | – |
| C=CC1CCC(CC)(CC(=O)O)c2[nH]c3c(CC)cccc3c21 (single isomer, unassigned) [Example 1 h, 4-Ethenyl-1,8-diethyl-2,3,4,9-tetrahydro-1H-carbazole-1-acetic Acid] | 0% | 62% | – | – |
| CCc1cccc2c3c([nH]c12)C(CC)(CC(=O)O)CCC3c1ccccc1 (single isomer, unassigned) [Example 2 d, 1,8-Diethyl-2,3,4,9-tetrahydro-4-phenyl-1H-carbazole-1-acetic Acid] | 17% | 12% | – | – |
| CCc1cccc2c3c([nH]c12)C(CC)(CC(=O)O)CCC3c1ccccc1 (single isomer, unassigned) [Example 2 e, 1,8-Diethyl-2,3,4,9-tetrahydro-4-phenyl-1H-carbazole-1-acetic acid] | 28% | 37% | – | – |
| C=C(C)C1CCC(CC)(CC(=O)O)c2[nH]c3c(CC)cccc3c21 (single isomer, unassigned) [Example 3 d, 4-(1-Methylethenyl)-1,8-diethyl-2,3,4,9-tetrahydro-1H-carbazole-1-acetic Acid] | – | – | 50% | 25% |
| C=C(C)C1CCC(CC)(CC(=O)O)c2[nH]c3c(CC)cccc3c21 (single isomer, unassigned) [Example 3 e, 4-(1-Methylethenyl)-1,8-diethyl-2,3,4,9-tetrahydro-1H-carbazole-1-acetic Acid] | 0% | 46% | – | – |
